Our source for the tissue uptake values is PMC4402678, “Twins in spirit - episode I: comparative preclinical evaluation of [^68Ga]DOTATATE and [^68Ga]HA-DOTATATE” (EJNMMI Research, 2015).

Where two headings read alike, the source gives them in different places.

For series [1] the following is noted: mouse, in vivo, iv, Biodistribution Lung, Control.
Procedure: (§1) To establish tumor growth, AR42J cells were detached from the surface of the culture flasks using 1 mM EDTA in PBS, centrifuged, and resuspended in serum-free culture medium. Concentration of the cell suspension was 2.5 to 5 × 10^6 cells/100 μL. Nude mice (CD-1 nu/nu, female, 6 to 8 weeks, from Charles River WIGA GmbH, Sulzfeld, Germany) were injected with 100 μL of the cell suspension subcutaneously into the flank. […] For competition studies, 20 μg TOC (0.8 mg/kg) were coinjected with the radioligands. The animals (groups of 4 to 5) were sacrificed 1 h post injection and the organs of interest were dissected. The radioactivity was measured in weighted tissue samples using a γ-counter. Data are given in %iD/g and are means ± SD.
A short description of series [2]: Biodistribution in AR42J tumor-bearing nude mice. The following applies: mouse, in vivo, 60 min p.i.
Procedure: as §1

Regarding `C[C@@H](O)[C@H](NC(=O)[C@@H]1CSSC[C@H](NC(=O)[C@@H](Cc2ccccc2)NC(=O)CN2CCN(CC(=O)O)CCN(CC(=O)O)CCN(CC(=O)O)CC2)C(=O)N[C@@H](Cc2ccc(O)cc2)C(=O)N[C@H](Cc2c[nH]c3ccccc23)C(=O)N[C@@H](CCCCN)C(=O)N[C@@H]([C@@H](C)O)C(=O)N1)C(=O)O` [[^68Ga]DOTATATE, [^68Ga]DOTA-Tyr^3-octreotate, metal not drawn], the tissue uptake at 1 h was 8.4 ± 1.4 %ID/g in series [1]; 2 ± 0.1 %ID/g in series [2] (Biodistribution AR42J tumor, Competition, coinjection of 20 μg/mouse unlabeled TOC, n = 3); 0.4 ± 0.1 %ID/g in series [2] (Biodistribution Adrenals, Competition, coinjection of 20 μg/mouse unlabeled TOC, n = 3); 0.4 ± 0.2 %ID/g in series [2] (Biodistribution Blood, Competition, coinjection of 20 μg/mouse unlabeled TOC, n = 3); 0.2 ± 0.1 %ID/g in series [2] (Biodistribution Heart, Competition, coinjection of 20 μg/mouse unlabeled TOC, n = 3); 0.6 ± 0.2 %ID/g in series [2] (Biodistribution Intestine, Competition, coinjection of 20 μg/mouse unlabeled TOC, n = 3). For the same compound, the tissue uptake at 1 h is 0.2 ± 0.05 %ID/g in series [2] (Biodistribution Liver, Competition, coinjection of 20 μg/mouse unlabeled TOC, n = 3); 0.6 ± 0.2 %ID/g in series [2] (Biodistribution Lung, Competition, coinjection of 20 μg/mouse unlabeled TOC, n = 3); 0.2 ± 0.1 %ID/g in series [2] (Biodistribution Muscle, Competition, coinjection of 20 μg/mouse unlabeled TOC, n = 3); 0.2 ± 0.03 %ID/g in series [2] (Biodistribution Spleen, Competition, coinjection of 20 μg/mouse unlabeled TOC, n = 3); 0.7 ± 0.1 %ID/g in series [2] (Biodistribution Stomach, Competition, coinjection of 20 μg/mouse unlabeled TOC, n = 3); 24.1 ± 4.9 %ID/g in series [2] (iv, Biodistribution AR42J tumor, Control, tracer only, n = 5). The tissue uptake at 1 h in series [2] (iv, Biodistribution Adrenals, Control, tracer only, n = 5) worked out at 5.1 ± 1.4 %ID/g; in series [2] (iv, Biodistribution Blood, Control, tracer only, n = 5), 0.3 ± 0.06 %ID/g; in series [2] (iv, Biodistribution Heart, Control, tracer only, n = 5), 0.3 ± 0.04 %ID/g; in series [2] (iv, Biodistribution Intestine, Control, tracer only, n = 5), 2.7 ± 0.8 %ID/g; in series [2] (iv, Biodistribution Kidney, Control, tracer only, n = 5), 3.9 ± 0.5 %ID/g; in series [2] (iv, Biodistribution Liver, Control, tracer only, n = 5) it was 0.5 ± 0.1 %ID/g. For the same compound, the tissue uptake at 1 h in series [2] (iv, Biodistribution Muscle, Control, tracer only, n = 5) is 0.3 ± 0.2 %ID/g; in series [2] (iv, Biodistribution Pancreas, Control, tracer only, n = 5), 26.1 ± 4.9 %ID/g; in series [2] (iv, Biodistribution Stomach, Control, tracer only, n = 5) it was 15.9 ± 3.9 %ID/g.

The term tissue uptake denotes the share of the injected amount in each gram of the tissue. The low end stands for low uptake, the high end for high uptake.
